Experimental data as given in publication PMC11200585, “Prospects for Prostate Cancer Chemotherapy: Cytotoxic Evaluation and Mechanistic Insights of Quinolinequinones with ADME/PK Profile” (Biomedicines, 2024).

Assays:
Type in all cases: cell-based, human
SNB-75 = experiment: NCI-60 five-dose assay (CNS cancer); conditions: 48 h, SRB
HCT-15 = experiment: NCI-60 five-dose assay (colon cancer); conditions: 48 h, SRB
BT-549 = experiment: NCI-60 five-dose assay (breast cancer); conditions: 48 h, SRB
IGROV1 [1] = experiment: NCI-60 five-dose assay (ovarian cancer); conditions: SRB
UO-31 = experiment: NCI-60 five-dose assay (renal cancer); conditions: 48 h, SRB
SK-MEL-5 [2] = experiment: NCI-60 five-dose assay (melanoma); conditions: 48 h, SRB
SNB-19 = experiment: NCI-60 five-dose assay (CNS cancer); conditions: 48 h, SRB
KM12 = experiment: NCI-60 five-dose assay (colon cancer); conditions: 48 h, SRB
PC-3 = experiment: NCI-60 five-dose assay (prostate cancer); conditions: 48 h, SRB
SF-268 = experiment: NCI-60 five-dose assay (CNS cancer); conditions: 48 h, SRB
OVCAR-8 [3] = experiment: NCI-60 five-dose assay (ovarian cancer); conditions: 48 h, SRB
HOP-92 = experiment: NCI-60 five-dose assay (non-small cell lung cancer); conditions: 48 h, SRB
UACC-62 = experiment: NCI-60 one-dose screen (melanoma); conditions: 10 µM single dose, 48 h
Procedure: (§1) The obtained quinolinequinones were submitted to NCI, Bethesda, USA, and, as per standard protocol of NCI, all compounds were evaluated for their antiproliferative activity at single-dose assay (10 µM concentration in DMSO) on a panel of 60 cancer cell lines derived from leukemia, non-small-cell lung, colon, CNS, melanoma, ovarian, renal, prostate, and breast, as per protocol. Tested compounds were added to the microtiter culture plates followed by incubation for 48 h at 37 °C. Sulforhodamine B (SRB), a protein-binding dye, is used for endpoint determination. The percent of the growth of the treated cells was determined in comparison to the untreated control cells and the results of each tested compound were reported. Data from one-dose experiments pertain to the percentage growth at 10 μM [16, 17, 18].

UACC-257 [4] = experiment: NCI-60 one-dose screen (melanoma); conditions: 10 µM single dose, 48 h
Procedure: as §1

MALME-3M = experiment: NCI-60 one-dose screen (melanoma); conditions: 10 µM single dose, 48 h
Procedure: as §1

LOX IMVI = experiment: NCI-60 one-dose screen (melanoma); conditions: 10 µM single dose, 48 h
Procedure: as §1

MDA-MB-435 = experiment: NCI-60 one-dose screen (melanoma); conditions: 10 µM single dose, 48 h
Procedure: as §1

SK-MEL-28 = experiment: NCI-60 one-dose screen (melanoma); conditions: 10 µM single dose, 48 h
Procedure: as §1

SK-MEL-2 = experiment: NCI-60 one-dose screen (melanoma); conditions: 10 µM single dose
Procedure: as §1

SK-MEL-5 [5] = experiment: NCI-60 one-dose screen (melanoma); conditions: 10 µM single dose, 48 h
Procedure: as §1

OVCAR-4 = experiment: NCI-60 one-dose screen (ovarian cancer); conditions: 10 µM single dose, 48 h
Procedure: as §1

IGROV1 [6] = experiment: NCI-60 one-dose screen (ovarian cancer); conditions: 10 µM single dose, 48 h
Procedure: as §1

OVCAR-8 [7] = experiment: NCI-60 one-dose screen (ovarian cancer); conditions: 10 µM single dose, 48 h
Procedure: as §1

NCI/ADR-RES = experiment: NCI-60 one-dose screen (ovarian cancer); conditions: 10 µM single dose, 48 h
Procedure: as §1

OVCAR-5 = experiment: NCI-60 one-dose screen (ovarian cancer); conditions: 10 µM single dose
Procedure: as §1

SK-OV-3 = experiment: NCI-60 one-dose screen (ovarian cancer); conditions: 10 µM single dose, 48 h
Procedure: as §1

HT29 = experiment: NCI-60 five-dose assay (colon cancer); conditions: SRB
UACC-257 [8] = experiment: NCI-60 five-dose assay (melanoma); conditions: 48 h, SRB
HS 578T = experiment: NCI-60 five-dose assay (breast cancer); conditions: 48 h, SRB
SF-295 = experiment: NCI-60 five-dose assay (CNS cancer); conditions: 48 h, SRB
CAKI-1 = experiment: NCI-60 five-dose assay (renal cancer); conditions: 48 h, SRB
MDA-MB-468 = experiment: NCI-60 five-dose assay (breast cancer); conditions: 48 h, SRB
RPMI-8226 = experiment: NCI-60 five-dose assay (leukemia); conditions: 48 h, SRB
TK-10 = experiment: NCI-60 five-dose assay (renal cancer); conditions: 48 h, SRB
RXF 393 = experiment: NCI-60 five-dose assay (renal cancer); conditions: 48 h, SRB
U251 = experiment: NCI-60 five-dose assay (CNS cancer); conditions: SRB
[9] = Homo sapiens, read-out: LC50 (the source's name)

Compound: COc1cc(NC2=C(Cl)C(=O)c3nc(C)ccc3C2=O)cc(OC)c1 [AQQ5]
- TGI (SNB-75): 5.37 µM
- GI50 (SNB-75; Homo sapiens): 1.94 µM
- LC50 (50% lethal concentration) (SNB-75; Homo sapiens): 23.2 µM
- TGI (HCT-15): 3.92 µM
- GI50 (HCT-15; Homo sapiens): 1.54 µM
- TGI (BT-549): 3.40 µM
- GI50 (BT-549; Homo sapiens): 1.97 µM
- LC50 (concentration giving 50% net cell kill) (BT-549; Homo sapiens): 5.87 µM
- TGI (IGROV1 [1]; 48 h): 3.55 µM
- GI50 (IGROV1 [1]; Homo sapiens, IGROV-1, 48 h): 1.73 µM
- LC50 (IGROV1 [1]; Homo sapiens, IGROV-1, 48 h): 7.26 µM
- TGI (UO-31): 3.06 µM
- GI50 (UO-31; Homo sapiens): 1.69 µM
- LC50 (lethal concentration 50%) (UO-31; Homo sapiens): 5.53 µM
- TGI (SK-MEL-5 [2]): 2.97 µM
- GI50 (SK-MEL-5 [2]; Homo sapiens): 1.62 µM
- CC50 (SK-MEL-5 [2]; [9]): 5.47 µM
- TGI (SNB-19): 18.8 µM
- GI50 (SNB-19; Homo sapiens): 5.82 µM
- CC50 (SNB-19; [9]): 44.2 µM
- TGI (KM12): 26.6 µM
- GI50 (KM12; Homo sapiens): 13 µM
- CC50 (KM12; [9]): 54.7 µM
- TGI (PC-3): 10.4 µM
- GI50 (PC-3; Homo sapiens): 2.56 µM
- CC50 (PC-3; [9]): 43.6 µM
- TGI (SF-268): 14.4 µM
- GI50 (SF-268; Homo sapiens): 3.25 µM
- LC50 (concentration killing 50% of cells) (SF-268; Homo sapiens): 72.7 µM
- TGI (OVCAR-8 [3]): 3.28 µM
- GI50 (OVCAR-8 [3]; Homo sapiens): 1.64 µM
- CC50 (OVCAR-8 [3]; [9]): 6.56 µM
- TGI (HOP-92): 3.17 µM
- GI50 (HOP-92; Homo sapiens): 1.73 µM
- LC50 (50% lethal concentration) (HOP-92; Homo sapiens): 5.83 µM
- GP (growth percentage) (UACC-62): −43.56%
- GP (growth percentage) (UACC-257 [4]): −92.05%
- GP (growth percentage) (MALME-3M): −89.37%
- GP (growth percentage) (LOX IMVI): −82.62%
- GP (growth percentage) (MDA-MB-435): −87.43%
- GP (growth percentage) (SK-MEL-28): −73.06%
- GP (growth percentage) (SK-MEL-2; 48 h): 5.03%
- inhibition at 10 µM (SK-MEL-2; Homo sapiens): 95%
- GP (growth percentage) (SK-MEL-5 [5]): −74.93%
- GP (growth percentage) (OVCAR-4): −93.28%
- GP (growth percentage) (IGROV1 [6]): −23.13%
- GP (growth percentage) (OVCAR-8 [7]): −0.82%
- GP (growth percentage) (NCI/ADR-RES): −1.26%
- GP (growth percentage) (OVCAR-5; 48 h): 22.00%
- inhibition at 10 µM (OVCAR-5; Homo sapiens): 78%
- GP (growth percentage) (SK-OV-3): 93.82%
- TGI (HT29; 48 h): 3.48 µM
- GI50 (HT29; Homo sapiens, HT-29, 48 h): 1.87 µM
- LC50 (concentration killing 50% of cells) (HT29; Homo sapiens, HT-29, 48 h): 6.48 µM
- TGI (UACC-257 [8]): 2.85 µM
- GI50 (UACC-257 [8]; Homo sapiens): 1.51 µM
- LC50 (NCI-60 lethal concentration, 50% cell kill) (UACC-257 [8]; Homo sapiens): 5.37 µM
- TGI (HS 578T): 5.78 µM
- GI50 (HS 578T; Homo sapiens): 2.43 µM
- CC50 (HS 578T; [9]): > 100 µM
- TGI (SF-295): 5.41 µM
- GI50 (SF-295; Homo sapiens): 1.99 µM
- LC50 (50% lethal concentration) (SF-295; Homo sapiens): 20.8 µM
- TGI (CAKI-1): 3.15 µM
- GI50 (CAKI-1; Homo sapiens): 1.76 µM
- LC50 (lethal concentration, 50% net cell kill) (CAKI-1; Homo sapiens): 5.65 µM
- TGI (MDA-MB-468): 2.57 µM
- GI50 (MDA-MB-468; Homo sapiens): 1.23 µM
- LC50 (MDA-MB-468; Homo sapiens): 5.37 µM
- TGI (RPMI-8226): 5.19 µM
- GI50 (RPMI-8226; Homo sapiens): 1.79 µM
- CC50 (RPMI-8226; [9]): > 100 µM
- TGI (TK-10): 3.78 µM
- GI50 (TK-10; Homo sapiens): 2.32 µM
- LC50 (concentration killing 50% of starting cells) (TK-10; Homo sapiens): 6.15 µM
- TGI (RXF 393): 2.99 µM
- GI50 (RXF 393; Homo sapiens): 1.63 µM
- LC50 (RXF 393; Homo sapiens): 5.48 µM
- TGI (U251; 48 h): 4.44 µM
- GI50 (U251; Homo sapiens, U-251, 48 h): 1.92 µM
- LC50 (concentration killing 50% of cells) (U251; Homo sapiens, U-251, 48 h): 10.8 µM
